How the values were obtained:
HIV-1 = experiment: Inhibition of HIV-1 replication: infected centers assay, HIV-1-induced syncytia formation; type: cell-based, HIV-1 strain IIIB; conditions: 300 μM (table footnote: 300 μm [sic]); PBL treated 2 h, HIV-1 IIIB MOI approx. 0.1; Sup T1 cells, read at 72 hours; mean of triplicates, variance did not exceed 5-10%
Protocol: (§1) Three studies were performed to determine the antiviral activity of the (2'-5')oligonucleotide derivatives of the present invention: (i) inhibition of HIV-1-replication, (ii) inhibition of HIV-1 reverse-transcriptase (RT) activity, and (iii) activation of recombinant human GST-RNase L. All compounds were tested at a concentration of 300 μM.
The infected centers assay as described by Henderson et al., Virology 1991, 182, 186, was used to measure the ability of the trimer core compounds of the invention to inhibit HIV-1 induced syncytia formation, an indicator of HIV-1 replication in T cells. Freshly isolated peripheral blood lymphocytes (PBL) were treated with 2-5A trimer or derivatives for 2 hours and infected with HIV-1 strain IIIB at a multiplicity of infection of approximately 0.1. The infected PBL were maintained in RPMI-1640 medium supplemented with 10% (v/v) heat-inactivated fetal calf serum at 37° C. in a humidified 5% CO2 in air atmosphere. After 48 hours, the cells were washed twice in Hank's balanced salt solution, serially diluted and seeded into multiple wells of a 96-well microtiter plate. Immediately, 2×10^5 exponentially growing Sup T1 cells were added to each well; Sup T1 cells readily form a syncytium with a cell which is productively infected with HIV-1. The wells were examined daily for the presence of syncytia, using a tissue culture microscope. The first signs of syncytia formation can be seen in 12 hours, with some complete syncytia developing by 24 hours. Final results were read at 72 hours. Each syncytium was counted as a single infected cell. The number of syncytia per seeded cell is determined and expressed as an infected center per infected cell. The number of syncytia per 10^4 cells was 121±16 for the control Sup T1 cells.
^b Inhibition of HIV-1 replication was determined by HIV-1-induced
syncytia formation (fold reduction) for each compound. The number of
syncytia/10^4 cells was 121 ± 16 for the control Sup T1 cells. The

[1] = test system: HIV-1 reverse-transcriptase; experiment: Inhibition of HIV-1 reverse-transcriptase (RT) activity in culture supernatant of infected Sup T1 cells; type: cell-based; conditions: 300 μM, 6 h pretreatment of Sup T1 cells; supernatant 96 h post-infection; mean of duplicates, variance did not exceed 5-10%
Protocol: as §1
Sup T1 cells were treated with trimer core compound at 300 μM for 6 hours and then infected with HIV-1 at a multiplicity of infection of approximately 0.1. At 96 hours post-infection, culture supernatant was removed and HIV-1 RT activity was assayed […] as described by Henderson et al., Virology 1991, 182, 186. Briefly in this method, 25 μl of culture supernatant was added to a 50 μl cocktail containing 50 mM Tris (pH 8.0), 20 mM dithiothreitol, 10 mM MgCl2, 60 mM NaCl, 0.05% Nonidet p-40, 5 μg/ml oligodeoxythymidylic acid, 10 μg/ml polyriboadenylic acid, 10 μM deoxythymidine triphosphate and 1mCi [α^32 P]thymidine 5'-triphosphate. The mixture was incubated at 37° C. for 2 hours. Fifty microliters of the cocktail were then spotted onto diethylaminoethyl (DEAE) paper, dried, washed with 2×SSC solution (three times for 10 minutes each time) and 95% ethanol (two times for 5 minutes each time), dried and exposed to radiographic film for 18 to 24 hours at -80° C. The filters were cut and final quantitation was determined by scintillation spectrometry.
The data for the HIV-1 RT activity is shown in Table 1 as a percent of RT activity. Control values for RT activity ranged from 15,000 to 16,000 dpm [α^32 P] incorporated.
^c Percent inhibition of reverse-transcriptase (HIV-1 RT) activity.
Control values for HIV-1 RT activity ranged from 15000 to 16000 dpm
incorporated. The mean of duplicate determinations is shown; variance did

[2] = test system: recombinant human GST-RNase L; experiment: Activation of recombinant human GST-RNase L (hydrolysis of poly(U)-3'-[^32 P]pCp); type: biochemical; conditions: 300 μM; mean of duplicates, variance did not exceed 5-10%
Protocol: as §1
Human recombinant RNase L was expressed in E. coli(DH5α) as a fusion protein of glutathione-S-transferase (GST). Activation of human recombinant GST-RNase L was measured as the percent of poly(U)[^32 P]pCp hydrolyzed in the presence of authentic 2',5'-oligoadenylate trimer core or trimer core analog of the invention as described by Sobol et al., J. Biol. Chem. 1995, 270, 5963. The data is shown in Table 1 as the mean of duplicate determinations.
^d The activation of recombinant human RNase L was measured as the
percent hydrolysis of poly(U)-3'-[^32 P]pCp in the presence of the
trimers 22-29. The mean of duplicate determinations is shown; variance did

Substance	Syn: inhibition of HIV-1 replication, HIV-1-induced syncytia formation (fold reduction) (HIV-1) [fold]	RT: percent inhibition of reverse-transcriptase (HIV-1 RT) activity [1] [%]	RNase L: activation of recombinant human RNase L, percent hydrolysis of poly(U)-3'-[^32 P]pCp [2] [%]
Adenylyl-(2'-5')-adenylyl-(2'-5')-N^6 -benzyladenosine Bis(triethylammonium) Salt [Compound 22]	> 1500	33	37.4
N^6 -Benzyladenylyl-(2'-5')-N^6 -benzyladenylyl-(2'-5')-N^6 -benzyladenosine Bis(triethylammonium) Salt [Compound 25]	> 1500	10.6	13.6
1-(β-D-Ribofuranosyl)-1H-1,2,4-triazole-3-carboxamide]yl-(2'-5')-adenylyl-(2'-5')-adenosine Bis(triethylammonium) Salt [Compound 28]	1.2	99.5	0
Adenylyl-(2'-5')-N^6 -benzyladenylyl-(2'-5')-adenosine Bis(triethylammonium) Salt [Compound 23]	> 1500	7.6	34.8
N^6 -Benzyladenylyl-(2'-5')-adenylyl-(2'-5')-adenosine Bis(triethylammonium) Salt [Compound 24]	> 1500	16.7	0
Adenylyl-(2'-5')-adenylyl-(2'-5')-1-(β-D-ribofuranosyl)-1H-1,2,4-triazole-3-carboxamide Bis(triethylammonium) Salt [Compound 26]	1.6	99.7	87.7
Adenylyl-(2'-5')-[1-(β-D-ribofuranosyl)-1H-1,2,4-triazole-3-carboxamide]yl-(2'-5')-adenosine Bis(triethylammonium) Salt [Compound 27]	7.0	99.7	9.4

Reference: patent US6281201A, “Base-modified derivatives of 2',5'-oligoadenylate and antiviral uses thereof” (Temple University- of the Commonwealth System of Higher …, priority 1999, dated 2001)
